Assay results from PubChem BioAssay AID2060489 (Molecular Pharmacology Branch, DTP, NCI, 2025).

Test system: 922993-354-T-J3-PDC complex spheroids, viability
Test: Anticancer human tumor 922993-354-T-J3-PDC patient-derived endometrial carcinoma cell line growth inhibition [GQUAD]
Conditions: for IC50: curve of first compound; for viability, T/C: stronger effect = lower value
How it was run: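 Viability of tumor cells grown as complex spheroids with endothelial and stromal cells, exposed to drug combinations. Top concentration at or near clinical Cmax (else 10 microM), diluted in half-log increments.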

[1] = second compound 0.0316 µM, first compound 0.0316 µM
[2] = second compound 0.0316 µM, first compound 0.316 µM
[3] = second compound 0.1 µM, first compound 0.0316 µM
[4] = second compound 0.1 µM, first compound 0.316 µM
[5] = second compound 0.316 µM, first compound 0.0316 µM
[6] = second compound 0.316 µM, first compound 0.316 µM
[7] = second compound 1 µM, first compound 0.0316 µM
[8] = second compound 1 µM, first compound 0.316 µM
[9] = second compound 3.16 µM, first compound 0.0316 µM
[10] = second compound 3.16 µM, first compound 0.316 µM
[11] = second compound 10 µM, first compound 0.0316 µM
[12] = second compound 10 µM, first compound 0.316 µM
[13] = second compound 0.0316 µM, first compound 0.1 µM
[14] = second compound 0.0316 µM, first compound 1 µM
[15] = second compound 0.0316 µM, first compound 3.16 µM
[16] = second compound 0.0316 µM, first compound 10 µM
[17] = second compound 0.1 µM, first compound 0.1 µM
[18] = second compound 0.1 µM, first compound 1 µM
[19] = second compound 0.1 µM, first compound 3.16 µM
[20] = second compound 0.1 µM, first compound 10 µM
[21] = second compound 0.316 µM, first compound 0.1 µM
[22] = second compound 0.316 µM, first compound 1 µM
[23] = second compound 0.316 µM, first compound 3.16 µM
[24] = second compound 0.316 µM, first compound 10 µM
[25] = second compound 1 µM, first compound 0.1 µM
[26] = second compound 1 µM, first compound 1 µM
[27] = second compound 1 µM, first compound 3.16 µM
[28] = second compound 1 µM, first compound 10 µM
[29] = second compound 3.16 µM, first compound 0.1 µM
[30] = second compound 3.16 µM, first compound 1 µM
[31] = second compound 3.16 µM, first compound 3.16 µM
[32] = second compound 3.16 µM, first compound 10 µM
[33] = second compound 10 µM, first compound 0.1 µM
[34] = second compound 10 µM, first compound 1 µM
[35] = second compound 10 µM, first compound 3.16 µM
[36] = second compound 10 µM, first compound 10 µM
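Note: spheroids exposed to compounds for seven days.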
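Throughout, for viability, T/C: 100% = DMSO vehicle control viability.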

## Cc1[nH]c2ccccc2c1CCNCc1ccc(/C=C/C(=O)NO)cc1 + CN(C)c1ccc(Nc2c3ccc(NC(=O)CCN4CCCC4)cc3nc3cc(NC(=O)CCN4CCCC4)ccc23)cc1
Second compound 0.0316 µM
  IC50: > 316 nM
Second compound 0.1 µM
  IC50: > 316 nM
Second compound 0.316 µM
  IC50: > 316 nM
Second compound 1 µM
  IC50: > 316 nM
Second compound 3.16 µM
  IC50: > 316 nM
Second compound 10 µM
  IC50: > 316 nM
Second compound 0.0316 µM, first compound 0.000999 µM
  viability, T/C: 104%
Second compound 0.0316 µM, first compound 0.00316 µM
  viability, T/C: 78.9%
Second compound 0.0316 µM, first compound 0.00999 µM
  viability, T/C: 91.6%
[1]
  viability, T/C: 67.8%
Second compound 0.0316 µM, first compound 0.0999 µM
  viability, T/C: 56.4%
[2]
  viability, T/C: 62.5%
Second compound 0.1 µM, first compound 0.000999 µM
  viability, T/C: 73.2%
Second compound 0.1 µM, first compound 0.00316 µM
  viability, T/C: 85.3%
Second compound 0.1 µM, first compound 0.00999 µM
  viability, T/C: 94.2%
[3]
  viability, T/C: 86.2%
Second compound 0.1 µM, first compound 0.0999 µM
  viability, T/C: 78.1%
[4]
  viability, T/C: 53.1%
Second compound 0.316 µM, first compound 0.000999 µM
  viability, T/C: 94.5%
Second compound 0.316 µM, first compound 0.00316 µM
  viability, T/C: 94.4%
Second compound 0.316 µM, first compound 0.00999 µM
  viability, T/C: 89.1%
[5]
  viability, T/C: 93%
Second compound 0.316 µM, first compound 0.0999 µM
  viability, T/C: 73.1%
[6]
  viability, T/C: 61.7%
Second compound 1 µM, first compound 0.000999 µM
  viability, T/C: 70.3%
Second compound 1 µM, first compound 0.00316 µM
  viability, T/C: 95.9%
Second compound 1 µM, first compound 0.00999 µM
  viability, T/C: 101%
[7]
  viability, T/C: 76.1%
Second compound 1 µM, first compound 0.0999 µM
  viability, T/C: 97%
[8]
  viability, T/C: 59.5%
Second compound 3.16 µM, first compound 0.000999 µM
  viability, T/C: 101%
Second compound 3.16 µM, first compound 0.00316 µM
  viability, T/C: 81.4%
Second compound 3.16 µM, first compound 0.00999 µM
  viability, T/C: 94.8%
[9]
  viability, T/C: 82.3%
Second compound 3.16 µM, first compound 0.0999 µM
  viability, T/C: 78.7%
[10]
  viability, T/C: 57.4%
Second compound 10 µM, first compound 0.000999 µM
  viability, T/C: 121%
Second compound 10 µM, first compound 0.00316 µM
  viability, T/C: 118%
Second compound 10 µM, first compound 0.00999 µM
  viability, T/C: 106%
[11]
  viability, T/C: 112%
Second compound 10 µM, first compound 0.0999 µM
  viability, T/C: 110%
[12]
  viability, T/C: 61.3%

## CC1COCCN1c1cc(C2(S(C)(=N)=O)CC2)nc(-c2ccnc3[nH]ccc23)n1 (stereo not drawn) + Cc1[nH]c2ccc(F)cc2c1-c1nc2c3cccnc3c3ncccc3c2[nH]1
Second compound 0.0316 µM
  IC50: > 10000 nM
Second compound 0.1 µM
  IC50: > 10000 nM
Second compound 0.316 µM
  IC50: > 10000 nM
Second compound 1 µM
  IC50: > 10000 nM
Second compound 3.16 µM
  IC50: > 10000 nM
Second compound 10 µM
  IC50: > 10000 nM
[1]
  viability, T/C: 103%
[13]
  viability, T/C: 96.9%
[2]
  viability, T/C: 110%
[14]
  viability, T/C: 83.9%
[15]
  viability, T/C: 114%
[16]
  viability, T/C: 60.6%
[3]
  viability, T/C: 110%
[17]
  viability, T/C: 107%
[4]
  viability, T/C: 138%
[18]
  viability, T/C: 132%
[19]
  viability, T/C: 106%
[20]
  viability, T/C: 67.5%
[5]
  viability, T/C: 135%
[21]
  viability, T/C: 117%
[6]
  viability, T/C: 109%
[22]
  viability, T/C: 124%
[23]
  viability, T/C: 79.6%
[24]
  viability, T/C: 67%
[7]
  viability, T/C: 118%
[25]
  viability, T/C: 106%
[8]
  viability, T/C: 109%
[26]
  viability, T/C: 106%
[27]
  viability, T/C: 106%
[28]
  viability, T/C: 80.1%
[9]
  viability, T/C: 92.3%
[29]
  viability, T/C: 124%
[10]
  viability, T/C: 87.2%
[30]
  viability, T/C: 104%
[31]
  viability, T/C: 88.8%
[32]
  viability, T/C: 81.4%
[11]
  viability, T/C: 138%
[33]
  viability, T/C: 104%
[12]
  viability, T/C: 128%
[34]
  viability, T/C: 96.3%
[35]
  viability, T/C: 101%
[36]
  viability, T/C: 89%

## O=C(c1cc(Cc2n[nH]c(=O)c3ccccc23)ccc1F)N1CCN(C(=O)C2CC2)CC1 + Cc1[nH]c2ccc(F)cc2c1-c1nc2c3cccnc3c3ncccc3c2[nH]1
Second compound 0.0316 µM
  IC50: > 10000 nM
Second compound 0.1 µM
  IC50: > 10000 nM
Second compound 0.316 µM
  IC50: > 10000 nM
Second compound 1 µM
  IC50: > 10000 nM
Second compound 3.16 µM
  IC50: > 10000 nM
Second compound 10 µM
  IC50: > 10000 nM
[1]
  viability, T/C: 107%
[13]
  viability, T/C: 113%
[2]
  viability, T/C: 98.3%
[14]
  viability, T/C: 102%
[15]
  viability, T/C: 89.5%
[16]
  viability, T/C: 81.1%
[3]
  viability, T/C: 108%
[17]
  viability, T/C: 119%
[4]
  viability, T/C: 88.3%
[18]
  viability, T/C: 99.5%
[19]
  viability, T/C: 124%
[20]
  viability, T/C: 95.5%
[5]
  viability, T/C: 93%
[21]
  viability, T/C: 90%
[6]
  viability, T/C: 72.6%
[22]
  viability, T/C: 115%
[23]
  viability, T/C: 102%
[24]
  viability, T/C: 118%
[7]
  viability, T/C: 91.5%
[25]
  viability, T/C: 100%
[8]
  viability, T/C: 108%
[26]
  viability, T/C: 92.3%
[27]
  viability, T/C: 92%
[28]
  viability, T/C: 68.3%
[9]
  viability, T/C: 81.1%
[29]
  viability, T/C: 98.3%
[10]
  viability, T/C: 89.7%
[30]
  viability, T/C: 88.1%
[31]
  viability, T/C: 97.9%
[32]
  viability, T/C: 88.8%
[11]
  viability, T/C: 106%
[33]
  viability, T/C: 110%
[12]
  viability, T/C: 88.2%
[34]
  viability, T/C: 80.2%
[35]
  viability, T/C: 101%
[36]
  viability, T/C: 83.7%

## CC1COCCN1c1cc(C2(O)CC3CCC(C2)O3)c2cnn(-c3ccn[nH]3)c2n1 (stereo not drawn) + Cc1cnc(CNC(=O)c2c(=O)c3ccc(N4CCCN(C)CC4)nc3n3c2sc2ccccc23)cn1
Second compound 0.0316 µM
  IC50: 214 nM
Second compound 0.1 µM
  IC50: 86.1 nM
Second compound 0.316 µM
  IC50: < 31.6 nM
Second compound 1 µM
  IC50: < 31.6 nM
Second compound 3.16 µM
  IC50: < 31.6 nM
Second compound 10 µM
  IC50: < 31.6 nM
[1]
  viability, T/C: 79.9%
[13]
  viability, T/C: 64.3%
[2]
  viability, T/C: 40.1%
[14]
  viability, T/C: 32.2%
[15]
  viability, T/C: 28.6%
[16]
  viability, T/C: 18.2%
[3]
  viability, T/C: 68.8%
[17]
  viability, T/C: 43.1%
[4]
  viability, T/C: 40.9%
[18]
  viability, T/C: 21%
[19]
  viability, T/C: 26.6%
[20]
  viability, T/C: 16.5%
[5]
  viability, T/C: 47.4%
[21]
  viability, T/C: 46.2%
[6]
  viability, T/C: 37.1%
[22]
  viability, T/C: 23.1%
[23]
  viability, T/C: 22.1%
[24]
  viability, T/C: 12.5%
[7]
  viability, T/C: 46.2%
[25]
  viability, T/C: 43.1%
[8]
  viability, T/C: 50.8%
[26]
  viability, T/C: 34.2%
[27]
  viability, T/C: 23.3%
[28]
  viability, T/C: 4.13%
[9]
  viability, T/C: 44.8%
[29]
  viability, T/C: 44.2%
[10]
  viability, T/C: 45.2%
[30]
  viability, T/C: 29.4%
[31]
  viability, T/C: 3.29%
[32]
  viability, T/C: 0.13%
[11]
  viability, T/C: 45.5%
[33]
  viability, T/C: 37.9%
[12]
  viability, T/C: 31.4%
[34]
  viability, T/C: 14.6%
[35]
  viability, T/C: 0.21%
[36]
  viability, T/C: 0.2%
